According to the supplement of paper PMC8092582:
Where a name gives a salt, the structure may show the parent alone. ± gives the standard deviation of the averaged measurements.

Test system: HeLa
Experiment: cell viability (CellTiter-Glo) relative to median of lowest-dilution wells of all drugs (fraction); higher = more viable cells
Method: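 HeLa control and CRISPR DDX11 knockout cells were seeded in 384-well plates and incubated for 72 h with each of 64 […] drugs at six concentrations. Viability was read with CellTiter-Glo and normalised to the median of the lowest (6th) dilution wells of all drugs. Two biological replicates (BR1, BR2) are averaged; the concentration unit is not stated.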

[1] = drug concentration (unit not stated): 0.12, genotype: DDX11 knockout
[2] = drug concentration (unit not stated): 0.12, genotype: control (DDX11 wild type)
[3] = drug concentration (unit not stated): 0.37, genotype: DDX11 knockout
[4] = drug concentration (unit not stated): 0.37, genotype: control (DDX11 wild type)
[5] = drug concentration (unit not stated): 1.11, genotype: DDX11 knockout
[6] = drug concentration (unit not stated): 1.11, genotype: control (DDX11 wild type)
[7] = drug concentration (unit not stated): 3.33, genotype: DDX11 knockout
[8] = drug concentration (unit not stated): 3.33, genotype: control (DDX11 wild type)
[9] = drug concentration (unit not stated): 10, genotype: DDX11 knockout
[10] = drug concentration (unit not stated): 10, genotype: control (DDX11 wild type)
[11] = drug concentration (unit not stated): 30, genotype: DDX11 knockout
[12] = drug concentration (unit not stated): 30, genotype: control (DDX11 wild type)
[13] = drug concentration (unit not stated): 0.04, genotype: DDX11 knockout
[14] = drug concentration (unit not stated): 0.04, genotype: control (DDX11 wild type)

CC[C@H](CO)Nc1nc(NCc2ccccc2)c2ncn(C(C)C)c2n1 [Seliciclib (Roscovitine)]
cell viability [1]: 0.992 ± 0.018
cell viability [2]: 0.946 ± 0.036
cell viability [3]: 1.008 ± 0.0031
cell viability [4]: 0.98 ± 0.018
cell viability [5]: 1.04 ± 0.021
cell viability [6]: 1 ± 0.033
cell viability [7]: 1 ± 0.012
cell viability [8]: 0.994 ± 0.038
cell viability [9]: 1.01 ± 0.051
cell viability [10]: 1.028 ± 0.008
cell viability [11]: 0.577 ± 0.26
cell viability [12]: 0.893 ± 0.38

Cn1cnc2c(F)c(Nc3ccc(Br)cc3Cl)c(C(=O)NOCCO)cc21 [Selumetinib (AZD6244)]
cell viability [13]: 0.991 ± 0.022
cell viability [14]: 0.985 ± 0.059
cell viability [1]: 0.963 ± 0.029
cell viability [2]: 0.957 ± 0.085
cell viability [3]: 0.9 ± 0.078
cell viability [4]: 0.95 ± 0.15
cell viability [5]: 0.902 ± 0.082
cell viability [6]: 0.955 ± 0.12
cell viability [7]: 0.855 ± 0.067
cell viability [8]: 0.935 ± 0.22
cell viability [9]: 0.744 ± 0.13
cell viability [10]: 0.913 ± 0.38

Nc1nc2[nH]cnc2c(=S)[nH]1 [Thioguanine]
cell viability [13]: 1.03 ± 0.045
cell viability [14]: 1.04 ± 0.04
cell viability [1]: 0.992 ± 0.017
cell viability [2]: 0.971 ± 0.044
cell viability [3]: 0.94 ± 0.039
cell viability [4]: 0.762 ± 0.065
cell viability [5]: 0.731 ± 0.15
cell viability [6]: 0.428 ± 0.15
cell viability [7]: 0.536 ± 0.12
cell viability [8]: 0.433 ± 0.21
cell viability [9]: 0.239 ± 0.025
cell viability [10]: 0.387 ± 0.2

CC[C@@]1(O)C(=O)OCc2c1cc1n(c2=O)Cc2cc3c(CN(C)C)c(O)ccc3nc2-1 [Topotecan HCl]
cell viability (drug concentration (unit not stated): 0.01, genotype: DDX11 knockout): 0.74 ± 0.27
cell viability (drug concentration (unit not stated): 0.01, genotype: control (DDX11 wild type)): 0.86 ± 0.14
cell viability [13]: 0.519 ± 0.38
cell viability [14]: 0.709 ± 0.57
cell viability [1]: 0.206 ± 0.19
cell viability [2]: 0.228 ± 0.21
cell viability [3]: 0.0639 ± 0.033
cell viability [4]: 0.0738 ± 0.043
cell viability [5]: 0.0268 ± 0.0046
cell viability [6]: 0.0567 ± 0.046
cell viability [7]: 0.0244 ± 0.0069
cell viability [8]: 0.0265 ± 0.01

Cc1cc(Nc2cc(N3CCN(C)CC3)nc(Sc3ccc(NC(=O)C4CC4)cc3)n2)n[nH]1 [Tozasertib (VX-680)]
cell viability [1]: 0.959 ± 0.016
cell viability [2]: 0.978 ± 0.1
cell viability [3]: 0.951 ± 0.025
cell viability [4]: 1.1 ± 0.2
cell viability [5]: 0.976 ± 0.087
cell viability [6]: 1.03 ± 0.22
cell viability [7]: 0.912 ± 0.048
cell viability [8]: 1.02 ± 0.23
cell viability [9]: 0.823 ± 0.04
cell viability [10]: 0.975 ± 0.22
cell viability [11]: 0.659 ± 0.067
cell viability [12]: 0.764 ± 0.19
